Data on three compounds can be found in ChEMBL document CHEMBL1146485, “Plant substances as anti-HIV agents selected according to their putative mechanism of action” (J Nat Prod, 2004).

Series [1] deals with Human immunodeficiency virus 1. As to the kind of experiment: Selectivity for HIV1 integrase over HIV1 reverse transcriptase.
A short description of series [2]: Elimination half life in po dosed human. The note with it: in vivo, read-out: beta t1/2 (converted). The series is classed as ADME, organism-based.

SMILES strings stand for the structures.

The compound `O=C(/C=C/c1ccc(O)c(O)c1)O[C@@H]1C[C@](O)(C(=O)O)C[C@@H](OC(=O)/C=C/c2ccc(O)c(O)c2)[C@H]1O` came in with a fold change (FC) in series [1] of 10.
Turning to `CCCc1cc(=O)oc2c3c(c4c(c12)OC(C)(C)C=C4)O[C@H](C)[C@@H](C)[C@@H]3O` [CALANOLIDE A], the half-life in series [2] was 15 h.
Consider `O=C(/C=C/c1ccc(O)c(O)c1)O[C@@H](C(=O)O)[C@@H](OC(=O)/C=C/c1ccc(O)c(O)c1)C(=O)O`, for which, in series [1], the fold change (FC) came out at 10.
